{"source": "ChEMBL document CHEMBL1641373", "about": "“Trishomocubane as a scaffold for the development of selective dopamine transporter (DAT) ligands” (Bioorg Med Chem Lett, 2011)", "key": {"[1]": {"target": "T1, 5-hydroxytryptamine receptor 3A (Homo sapiens) (UniProt P46098)", "T1 sequence (whole entry)": "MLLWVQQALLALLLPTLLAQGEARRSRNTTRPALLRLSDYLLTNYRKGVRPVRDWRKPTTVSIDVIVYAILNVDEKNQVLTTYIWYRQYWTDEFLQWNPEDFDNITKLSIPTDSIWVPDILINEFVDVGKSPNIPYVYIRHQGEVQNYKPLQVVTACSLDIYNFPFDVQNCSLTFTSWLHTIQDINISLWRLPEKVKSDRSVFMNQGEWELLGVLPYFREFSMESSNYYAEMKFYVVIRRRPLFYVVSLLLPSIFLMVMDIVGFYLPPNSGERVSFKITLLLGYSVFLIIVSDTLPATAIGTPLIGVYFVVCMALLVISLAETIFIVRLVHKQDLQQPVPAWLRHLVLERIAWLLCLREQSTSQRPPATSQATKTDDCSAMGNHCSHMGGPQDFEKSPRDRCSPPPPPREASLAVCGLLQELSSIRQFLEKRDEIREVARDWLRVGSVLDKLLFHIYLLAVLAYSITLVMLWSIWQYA", "assay": "Inhibition of 5HT3 receptor at 10 uM"}, "[2]": {"target": "T2, Muscarinic acetylcholine receptor M5 (Homo sapiens) (UniProt P08912)", "T2 sequence (whole entry)": "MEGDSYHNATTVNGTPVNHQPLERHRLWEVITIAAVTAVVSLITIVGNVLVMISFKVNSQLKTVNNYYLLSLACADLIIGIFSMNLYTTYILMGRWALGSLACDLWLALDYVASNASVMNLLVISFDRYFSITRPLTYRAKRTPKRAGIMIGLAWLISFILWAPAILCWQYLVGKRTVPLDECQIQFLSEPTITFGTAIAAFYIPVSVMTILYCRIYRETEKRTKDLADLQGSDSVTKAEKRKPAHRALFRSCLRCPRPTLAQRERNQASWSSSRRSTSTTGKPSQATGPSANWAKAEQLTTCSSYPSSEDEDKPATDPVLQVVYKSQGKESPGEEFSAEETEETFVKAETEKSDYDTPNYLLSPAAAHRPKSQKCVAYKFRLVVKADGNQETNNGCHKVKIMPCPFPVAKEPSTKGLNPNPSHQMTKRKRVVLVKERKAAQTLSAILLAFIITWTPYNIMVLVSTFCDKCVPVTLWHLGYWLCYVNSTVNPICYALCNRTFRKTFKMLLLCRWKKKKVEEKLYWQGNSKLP", "assay": "Inhibition of muscarinic M5 receptor at 10 uM"}, "[3]": {"target": "Histamine H4 receptor (Homo sapiens) (UniProt Q9H3N8)", "sequence (Q9H3N8 whole entry)": "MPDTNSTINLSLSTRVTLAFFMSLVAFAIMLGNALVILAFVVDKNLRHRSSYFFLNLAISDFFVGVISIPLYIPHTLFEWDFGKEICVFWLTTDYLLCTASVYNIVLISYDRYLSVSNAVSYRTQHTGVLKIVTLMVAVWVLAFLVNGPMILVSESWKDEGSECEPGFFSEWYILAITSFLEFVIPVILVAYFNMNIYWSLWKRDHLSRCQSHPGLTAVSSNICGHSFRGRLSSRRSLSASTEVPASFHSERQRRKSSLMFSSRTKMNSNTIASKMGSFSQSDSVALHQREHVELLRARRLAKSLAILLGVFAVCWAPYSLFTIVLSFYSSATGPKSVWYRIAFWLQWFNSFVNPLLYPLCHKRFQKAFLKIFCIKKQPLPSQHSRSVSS", "assay": "Inhibition of H4 receptor at 10 uM"}, "[4]": {"target": "Delta-type opioid receptor (Homo sapiens) (UniProt P41143)", "sequence (P41143 whole entry)": "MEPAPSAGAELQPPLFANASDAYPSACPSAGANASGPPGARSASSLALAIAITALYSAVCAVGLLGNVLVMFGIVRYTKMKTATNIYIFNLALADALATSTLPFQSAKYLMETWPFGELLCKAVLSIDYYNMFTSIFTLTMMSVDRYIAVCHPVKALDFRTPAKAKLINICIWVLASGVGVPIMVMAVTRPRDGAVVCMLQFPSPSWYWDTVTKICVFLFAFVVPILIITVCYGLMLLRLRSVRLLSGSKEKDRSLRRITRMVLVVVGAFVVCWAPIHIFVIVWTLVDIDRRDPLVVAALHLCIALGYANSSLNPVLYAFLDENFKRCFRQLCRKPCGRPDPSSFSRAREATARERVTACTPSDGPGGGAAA", "assay": "Inhibition of delta opioid receptor at 10 uM"}, "[5]": {"target": "T3, 5-hydroxytryptamine receptor 1A (Homo sapiens) (UniProt P08908)", "T3 sequence (whole entry)": "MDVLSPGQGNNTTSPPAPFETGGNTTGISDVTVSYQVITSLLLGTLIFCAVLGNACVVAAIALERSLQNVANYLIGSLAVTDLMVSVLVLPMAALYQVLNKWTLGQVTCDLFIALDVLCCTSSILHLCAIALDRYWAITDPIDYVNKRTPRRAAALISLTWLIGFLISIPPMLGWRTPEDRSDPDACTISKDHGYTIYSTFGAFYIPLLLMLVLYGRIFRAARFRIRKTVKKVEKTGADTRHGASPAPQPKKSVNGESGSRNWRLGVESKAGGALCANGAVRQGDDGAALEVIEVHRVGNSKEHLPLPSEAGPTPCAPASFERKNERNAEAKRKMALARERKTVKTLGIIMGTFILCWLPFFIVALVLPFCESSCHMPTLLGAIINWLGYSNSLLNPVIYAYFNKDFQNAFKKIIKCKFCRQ", "assay": "Inhibition of 5HT1A receptor at 10 uM"}, "[6]": {"target": "T4, Alpha-1B adrenergic receptor (Homo sapiens) (UniProt P35368)", "T4 sequence (whole entry)": "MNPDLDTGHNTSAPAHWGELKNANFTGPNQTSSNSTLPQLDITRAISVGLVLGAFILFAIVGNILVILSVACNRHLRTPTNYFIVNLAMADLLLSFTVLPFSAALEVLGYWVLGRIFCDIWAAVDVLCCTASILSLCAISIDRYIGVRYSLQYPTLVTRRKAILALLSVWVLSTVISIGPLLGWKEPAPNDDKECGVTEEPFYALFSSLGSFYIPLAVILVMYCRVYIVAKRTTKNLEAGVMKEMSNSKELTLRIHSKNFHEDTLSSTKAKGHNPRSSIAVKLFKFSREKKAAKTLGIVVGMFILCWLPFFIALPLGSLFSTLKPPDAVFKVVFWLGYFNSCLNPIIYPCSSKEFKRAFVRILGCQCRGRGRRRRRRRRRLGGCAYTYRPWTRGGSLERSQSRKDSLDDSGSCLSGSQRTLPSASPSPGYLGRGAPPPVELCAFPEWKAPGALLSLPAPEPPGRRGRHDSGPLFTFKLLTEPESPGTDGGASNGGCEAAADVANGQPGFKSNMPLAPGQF", "assay": "Inhibition of Alpha-1B adrenergic receptor at 10 uM"}, "[7]": {"target": "Mu-type opioid receptor (Homo sapiens) (UniProt P35372)", "sequence (P35372 whole entry)": "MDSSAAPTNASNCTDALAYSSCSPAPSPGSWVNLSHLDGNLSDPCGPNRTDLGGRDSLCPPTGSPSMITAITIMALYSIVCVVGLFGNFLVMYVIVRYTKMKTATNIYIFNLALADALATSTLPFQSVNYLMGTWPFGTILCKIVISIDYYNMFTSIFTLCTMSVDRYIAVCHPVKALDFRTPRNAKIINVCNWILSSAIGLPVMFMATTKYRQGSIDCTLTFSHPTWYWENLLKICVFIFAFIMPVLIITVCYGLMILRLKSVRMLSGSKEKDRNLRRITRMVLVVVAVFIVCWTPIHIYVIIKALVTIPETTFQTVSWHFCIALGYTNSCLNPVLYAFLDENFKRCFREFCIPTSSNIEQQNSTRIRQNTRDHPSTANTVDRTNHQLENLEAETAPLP", "assay": "Inhibition of mu opioid receptor at 10 uM"}, "Histamine H2 receptor": {"target": "Histamine H2 receptor (Homo sapiens, UniProt P25021)", "sequence (P25021 whole entry)": "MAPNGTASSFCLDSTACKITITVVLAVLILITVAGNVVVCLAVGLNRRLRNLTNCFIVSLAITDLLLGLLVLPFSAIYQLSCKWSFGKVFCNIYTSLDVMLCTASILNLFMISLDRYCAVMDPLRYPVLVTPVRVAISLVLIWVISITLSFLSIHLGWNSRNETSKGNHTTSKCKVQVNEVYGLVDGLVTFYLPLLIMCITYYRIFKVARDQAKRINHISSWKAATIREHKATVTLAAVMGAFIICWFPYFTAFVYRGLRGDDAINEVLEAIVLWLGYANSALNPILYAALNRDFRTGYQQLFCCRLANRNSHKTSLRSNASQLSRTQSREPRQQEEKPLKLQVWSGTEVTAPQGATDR", "assay": "Inhibition of H2 receptor"}, "D(3) dopamine receptor": {"target": "D(3) dopamine receptor (Homo sapiens, UniProt P35462)", "sequence (P35462 whole entry)": "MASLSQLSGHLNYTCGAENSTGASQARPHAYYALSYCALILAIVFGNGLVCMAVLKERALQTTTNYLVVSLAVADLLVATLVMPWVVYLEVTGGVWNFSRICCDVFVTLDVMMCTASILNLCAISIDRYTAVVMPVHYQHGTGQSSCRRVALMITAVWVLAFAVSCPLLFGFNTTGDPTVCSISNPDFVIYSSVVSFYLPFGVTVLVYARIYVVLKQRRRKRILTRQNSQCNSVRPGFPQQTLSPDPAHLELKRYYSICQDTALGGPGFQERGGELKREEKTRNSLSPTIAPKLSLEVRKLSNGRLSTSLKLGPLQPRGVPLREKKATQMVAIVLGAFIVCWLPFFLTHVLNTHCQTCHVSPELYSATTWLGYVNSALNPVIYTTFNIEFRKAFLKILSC", "assay": "Inhibition of dopamine D3 receptor"}, "[8]": {"target": "D(2) dopamine receptor (Homo sapiens) (UniProt P14416)", "sequence (P14416 whole entry)": "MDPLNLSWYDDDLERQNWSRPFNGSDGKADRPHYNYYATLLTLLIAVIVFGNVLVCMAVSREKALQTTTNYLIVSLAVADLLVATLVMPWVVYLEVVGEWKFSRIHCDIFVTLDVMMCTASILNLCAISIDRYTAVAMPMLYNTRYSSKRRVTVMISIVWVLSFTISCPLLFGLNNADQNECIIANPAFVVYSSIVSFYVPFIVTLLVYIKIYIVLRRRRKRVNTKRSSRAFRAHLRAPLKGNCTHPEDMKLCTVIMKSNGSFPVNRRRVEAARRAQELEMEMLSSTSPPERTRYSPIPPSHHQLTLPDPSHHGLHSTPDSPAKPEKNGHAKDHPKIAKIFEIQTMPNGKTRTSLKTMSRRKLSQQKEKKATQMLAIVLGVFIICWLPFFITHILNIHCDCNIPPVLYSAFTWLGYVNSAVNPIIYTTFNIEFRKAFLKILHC", "assay": "Inhibition of dopamine D2 receptor at 10 uM"}, "[9]": {"target": "T5, Alpha-2A adrenergic receptor (Homo sapiens) (UniProt P08913)", "T5 sequence (whole entry)": "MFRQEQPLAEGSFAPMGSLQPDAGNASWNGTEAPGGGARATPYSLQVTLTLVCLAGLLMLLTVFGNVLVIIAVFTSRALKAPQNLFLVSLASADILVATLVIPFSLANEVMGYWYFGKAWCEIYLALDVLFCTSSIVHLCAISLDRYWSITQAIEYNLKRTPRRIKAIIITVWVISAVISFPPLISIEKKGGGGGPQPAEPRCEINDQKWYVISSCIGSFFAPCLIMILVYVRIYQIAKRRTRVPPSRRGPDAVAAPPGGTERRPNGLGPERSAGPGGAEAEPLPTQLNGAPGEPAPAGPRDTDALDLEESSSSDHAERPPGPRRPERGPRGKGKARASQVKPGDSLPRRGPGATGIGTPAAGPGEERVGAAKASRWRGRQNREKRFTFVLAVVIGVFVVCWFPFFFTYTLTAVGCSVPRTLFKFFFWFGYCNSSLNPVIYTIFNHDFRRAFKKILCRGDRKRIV", "assay": "Inhibition of alpha2A adrenergic receptor at 10 uM"}}}
{"smiles": "Fc1cccc(CN[C@H]2C3C4CC5C6C4CC3C6C52)c1", "note": "(stereo not given in full)", "values": [{"measurement": "inhibition", "setting": "[1]", "result": "< 50", "unit": "%"}, {"measurement": "inhibition", "setting": "[2]", "result": "< 50", "unit": "%"}, {"measurement": "inhibition", "setting": "[3]", "result": "< 50", "unit": "%"}, {"measurement": "inhibition", "setting": "[4]", "result": "< 50", "unit": "%"}, {"measurement": "inhibition", "setting": "[5]", "result": "< 50", "unit": "%"}, {"measurement": "inhibition", "setting": "[6]", "result": "< 50", "unit": "%"}, {"measurement": "inhibition", "setting": "[7]", "result": "< 50", "unit": "%"}, {"measurement": "Ki", "setting": "Histamine H2 receptor", "result": 2.15, "unit": "µM"}, {"measurement": "Ki", "setting": "D(3) dopamine receptor", "result": 7.16, "unit": "µM"}, {"measurement": "inhibition", "setting": "[8]", "result": "< 50", "unit": "%"}, {"measurement": "inhibition", "setting": "[9]", "result": "< 50", "unit": "%"}]}
{"smiles": "CN(Cc1cccc(F)c1)[C@H]1C2C3CC4C5C3CC2C5C41", "note": "(stereo not given in full)", "values": [{"measurement": "inhibition", "setting": "[1]", "result": "< 50", "unit": "%"}, {"measurement": "inhibition", "setting": "[2]", "result": "< 50", "unit": "%"}, {"measurement": "inhibition", "setting": "[3]", "result": "< 50", "unit": "%"}, {"measurement": "inhibition", "setting": "[4]", "result": "< 50", "unit": "%"}, {"measurement": "inhibition", "setting": "[5]", "result": "< 50", "unit": "%"}, {"measurement": "inhibition", "setting": "[6]", "result": "< 50", "unit": "%"}, {"measurement": "inhibition", "setting": "[7]", "result": "< 50", "unit": "%"}, {"measurement": "inhibition", "setting": "[8]", "result": "< 50", "unit": "%"}, {"measurement": "inhibition", "setting": "[9]", "result": "< 50", "unit": "%"}]}
{"smiles": "CN(CCc1cccc(F)c1)[C@H]1C2C3CC4C5C3CC2C5C41", "note": "(stereo not given in full)", "values": [{"measurement": "inhibition", "setting": "[1]", "result": "< 50", "unit": "%"}, {"measurement": "inhibition", "setting": "[2]", "result": "< 50", "unit": "%"}, {"measurement": "inhibition", "setting": "[3]", "result": "< 50", "unit": "%"}, {"measurement": "inhibition", "setting": "[4]", "result": "< 50", "unit": "%"}, {"measurement": "inhibition", "setting": "[5]", "result": "< 50", "unit": "%"}, {"measurement": "inhibition", "setting": "[6]", "result": "< 50", "unit": "%"}, {"measurement": "inhibition", "setting": "[7]", "result": "< 50", "unit": "%"}, {"measurement": "Ki", "setting": "Histamine H2 receptor", "result": 4.45, "unit": "µM"}, {"measurement": "Ki", "setting": "D(3) dopamine receptor", "result": "> 10", "unit": "µM"}, {"measurement": "inhibition", "setting": "[8]", "result": "< 50", "unit": "%"}, {"measurement": "inhibition", "setting": "[9]", "result": "< 50", "unit": "%"}]}
{"smiles": "Fc1cccc(CCN[C@H]2C3C4CC5C6C4CC3C6C52)c1", "note": "(stereo not given in full)", "values": [{"measurement": "inhibition", "setting": "[1]", "result": "< 50", "unit": "%"}, {"measurement": "inhibition", "setting": "[3]", "result": "< 50", "unit": "%"}, {"measurement": "inhibition", "setting": "[4]", "result": "< 50", "unit": "%"}, {"measurement": "inhibition", "setting": "[5]", "result": "< 50", "unit": "%"}, {"measurement": "inhibition", "setting": "[6]", "result": "< 50", "unit": "%"}, {"measurement": "inhibition", "setting": "[7]", "result": "< 50", "unit": "%"}, {"measurement": "Ki", "setting": "Histamine H2 receptor", "result": 4.42, "unit": "µM"}, {"measurement": "Ki", "setting": "D(3) dopamine receptor", "result": 5.21, "unit": "µM"}, {"measurement": "inhibition", "setting": "[8]", "result": "< 50", "unit": "%"}]}
